Patent US20220193085A1, “METHODS OF THROMBOPROPHYLAXIS” (JANSSEN PHARMACEUTICALS, INC., priority 2020, published 2022)
Several values for one entry are separate records, joined by “and”; a condition that tells them apart may be missing. Equal entries are not always repeated. Entries after “also recorded” stand apart in the source; their conditions may differ. Where two headings read alike, the source gives them in different places.

What was measured:
[1] = 10 mg QD, N=140, cited from earlier work
clinical = conditions: human, plasma, oral
Experimental: (§2) Rivaroxaban was administered twice daily (BID) in an open-label fashion as a 0.1% (1 mg/mL) oral suspension based on weight as shown in Table 2 (not related to prandial state).
(§3) Blood samples were collected for PK (i.e., plasma rivaroxaban concentrations) and full PD (prothrombin time [PT], activated partial thromboplastin time [aPTT], and anti-factor Xa activity) assessments on the first day of dosing between 0.5 to 1.5 hours and again between 1.5 to 4.0 hours postdose. Additional samples were collected on Day 4, just prior to rivaroxaban administration (PK, PT, aPTT) and again between 0.5 to 1.5 hours (PK, PT, aPTT), 1.5 to 4.0 hours (PK, PT, aPTT), and 6.0 to 8.0 hours (PK and full PD) postdose. At Month 3, samples were collected just prior to rivaroxaban dosing (PK and full PD) and at 0.5 to 1.5 hours postdose (PK, PT, aPTT) and 2.5 to 4 hours postdose (PK, PT, aPTT). An additional random sample (PK, PT, and aPTT) was collected at Month 12.
(§4) In Part B, blood samples were collected for assessment of PT and aPTT before the first dosing; PK and full PD samples were collected between 0.5 to 1.5 hours and again between 1.5 to 4.0 hours after the first dose. At Month 3, PK and full PD samples were collected just prior to rivaroxaban administration and again between 0.5 to 1.5 hours, and 2.5 to 4.0 hours postdose. An additional random sample (PK, PT, and aPTT) was collected at Month 12.
(§5) Blood samples for PK or PD assays were centrifuged, and the resulting plasma samples were frozen and stored below −15° C. until analyzed. Rivaroxaban plasma concentrations were determined using the validated liquid chromatography/mass spectrometry/mass spectrometry (LC-MS/MS) method with a lower limit of quantitation (LLOQ) of 0.5 μg/L. The pharmacodynamic effects of rivaroxaban were assessed by evaluation of prothrombin time (PT), activated partial thromboplastin time (aPTT), and anti-Factor Xa activity (AXA).
(§6) Patients in Part A received their first dose of rivaroxaban oral suspension on Day 1 (on site) and then continued taking rivaroxaban twice daily for 12 days (+9 days) to achieve steady state. PK and PD samples were collected on Day 1 and Day 4 (+2 days) of rivaroxaban administration (Table 3).
(§7) Part A, individual empirical Bayesian post-hoc PK parameters were derived using the existing population PK model from the Einstein Jr program (with the NONMEM option: $ESTIMATION MAXEVAL=0).
(§8) The population PK model used for the rivaroxaban PK profile evaluation was based on the Einstein Jr program. The pharmacokinetics of rivaroxaban were described by a linear two-compartment model with first-order oral absorption and first-order elimination from the central compartment with the absorption rate constant (KA), apparent clearance of the central compartment (CL/F), apparent central volume of distribution (Vc/F), apparent peripheral volume of distribution (Vp/F), and transport rate between the central and peripheral compartments (CI) as structural model parameters. CL/F, Q/F, Vp/F, and Vc/F were fig. allometrically scaled with body weight. Inter-individual variability (IIV) was identified for KA and CL/F. Residual error was described by a proportional error model.

[2] = Benefit-risk assessment: excess number of events per 1,000 subjects, Part B rivaroxaban vs aspirin
Experimental: Benefit-risk balance was assessed using excess number of events defined as the absolute proportion difference between the Part B rivaroxaban and aspirin groups scaled to 1,000 subjects to reflect benefits and risks on a population level.

[3] = test system: prothrombin time (PT), activated partial thromboplastin time (aPTT); test: UNIVERSE PK/PD: PT and aPTT vs plasma rivaroxaban concentration; format: in vivo, pediatric patients; conditions: UNIVERSE vs adult studies ODIXa-HIP2 and ODIXa-KNEE
Experimental: (§1) PT and aPTT were determined using an electromagnetic mechanical clot detection method at ARUP laboratory (Salt Lake City, Utah, USA). The PT assay was performed according to the manufacturers' instructions on the STA Compact Hemostasis Workstation (STA Compact coagulation analyzer) using one PT reagent (STA-Neoplastine CI Plus, Diagnostica Stago, Inc), with an International Sensitivity Index (ISI) of around 1.3. The primary read-out for PT was in seconds, as the International Normalization Ratio (INR) which allows for comparison of PT values regardless of the reagents and instruments used for its determination, is only calibrated and validated for VKA and cannot be used for any other anticoagulant without validation. The PT reportable range is between 10 and 120 seconds. […] The read-out for aPTT is in seconds with a reportable range between 5 and 180 seconds. Anti-Factor Xa activity was determined at Eurofins Biomnis (France). Anti-Factor Xa activity was measured using a one-step reaction based on the inhibitory effect of rivaroxaban against factor Xa's activity of generating thrombin from prothrombin after adding rivaroxaban into the plasma-substrate mixture using the STA-COMPACT MAX2® system (Diagnostica Stago, Asnieres-sur-Seine, France). […] The calibration range of the assay is 35 to 500 ng/mL, and the lower limit of quantification (LLOQ) is 35 ng rivaroxaban/mL. […]

[4] = UNIVERSE primary efficacy outcome: any thrombotic event (CIAC adjudicated); format: in vivo, pediatric patients; conditions: full analysis set
Description: This study was a prospective, open-label, active-controlled, multicenter study designed to evaluate the PK and PK/PD profiles, safety, and efficacy of rivaroxaban for thromboprophylaxis in pediatric patients 2 to 8 years of age with single ventricle physiology who have completed the Fontan procedure within 4 months prior to enrollment. The trial was approved by the institutional review board of each participating institution, as well as the appropriate national ethics committee. Written informed consent for trial participation was obtained from the parent or guardian of each patient. An Independent Data Monitoring Committee (IDMC) ensured patients' safety throughout the trial. A Central Independent Adjudication Committee (CIAC) reviewed all efficacy and safety events.
Part B was the randomized, open-label, active-controlled part of the study that evaluated the safety and efficacy of twice daily administration of rivaroxaban compared to ASA (usual standard of care) for thromboprophylaxis for 12 months. Patients randomized to rivaroxaban also had PK and PD assessments.
Primary efficacy outcome: Any thrombotic event, venous or arterial, symptomatic or asymptomatic defined as: • The appearance of a new thrombus within the cardiovascular system on either routine surveillance or clinically indicated imaging, or • The occurrence of a clinical event known to be strongly associated with thrombus (e.g., stroke, pulmonary embolism).
All efficacy outcomes were adjudicated by the CIAC, blinded to assigned treatment.

factor Xa = test: UNIVERSE PK/PD: anti-Factor Xa activity vs plasma rivaroxaban concentration; format: in vivo, pediatric patients
Experimental: as §1

[5] = UNIVERSE primary efficacy outcome: any thrombotic event (CIAC adjudicated); format: in vivo, pediatric patients; conditions: Part A N=12; up to end of treatment; full analysis set
[6] = UNIVERSE study: population PK and steady-state exposure of rivaroxaban in post-Fontan pediatric patients
Experimental: as §2, §3, §4, §5, §6, §7, §8

[7] = Part B rivaroxaban minus aspirin, up to end of treatment, full analysis set
[8] = Part B rivaroxaban vs aspirin, negative values favor rivaroxaban
[9] = Part B rivaroxaban vs aspirin, positive values favor aspirin
[10] = for 1,000 subjects treated with rivaroxaban
[11] = Part A N=12, up to end of treatment
[12] = Part B rivaroxaban N=64, aspirin N=34, up to end of treatment
[13] = rivaroxaban Part A+B total N=76, up to end of treatment
[14] = UNIVERSE Part A, weight-based dose regimen BID, N=12
[15] = UNIVERSE all patients, weight-based dose regimen BID, N=76
[16] = full UNIVERSE data-set, population PK model
[17] = full UNIVERSE data-set, subject with body weight of 15 kg

## O=C(NC[C@H]1CN(c2ccc(N3CCOCC3=O)cc2)C(=O)O1)c1ccc(Cl)s1 [Rivaroxaban, 5-chloro-N-({(5S)-2-oxo-3-[4-(3-oxo-4-morpholinyl)phenyl]-1,3,oxazolidin-5-yl}methyl)-2-thiophenecarboxamide]
[1]; Adult reference ODIXa-HIP-OD
  AUC24h,ss geometric mean (90% CI): 1494 ng·h/mL
[1]; Adult reference
  AUC24h,ss median (range): 1452 ng·h/mL
  Cmax,ss geometric mean (90% CI): 125.8 ng/mL
  Cmax,ss median (range): 127.6 ng/mL
  Ctrough,ss geometric mean (90% CI): 13.9 ng/mL
  Ctrough,ss median (range): 14.3 ng/mL
clinical
  AUC(0-t): 1480 ng·h/mL
  Cmax: 124 ng/mL
[2]; [7]
  Excess number of events: CRNM bleeding: −25.7 events per 1,000 subjects
  Excess number of events: SAEs: 46.0 events per 1,000 subjects
  Excess number of events: all-cause mortality: 0.0 events per 1,000 subjects
  Excess number of events: any thrombotic event (primary efficacy outcome): −72.6 events per 1,000 subjects
  Excess number of events: arterial/intracardiac thrombosis: 0.0 events per 1,000 subjects
  Excess number of events: fall in hemoglobin ≥2 g/dL or transfusion of the equivalent ≥2 units: 15.6 events per 1,000 subjects
  Excess number of events: fatal or critical site bleeding: 0.0 events per 1,000 subjects
  Excess number of events: ischemic stroke: −29.4 events per 1,000 subjects
  Excess number of events: major and clinically relevant non-major bleeding: −10.1 events per 1,000 subjects
  Excess number of events: major bleeding (primary safety outcome): 15.6 events per 1,000 subjects
  Excess number of events: pulmonary embolism: 15.6 events per 1,000 subjects
  Excess number of events: trivial (minimal) bleeding: −24.8 events per 1,000 subjects
  Excess number of events: venous thromboembolism: −43.2 events per 1,000 subjects
  Excess number of events: venous thrombosis: −58.8 events per 1,000 subjects
[2]; [8]
  NNH: CRNM bleeding: −39
  NNH: major and clinically relevant non-major bleeding: −99
  NNH: trivial (minimal) bleeding: −41
  NNT: any thrombotic event (primary efficacy outcome): −14
  NNT: ischemic stroke: −34
  NNT: venous thromboembolism: −24
  NNT: venous thrombosis: −17
[2]; [9]
  NNH: SAEs: 21
  NNH: fall in hemoglobin ≥2 g/dL or transfusion of the equivalent ≥2 units: 64
  NNH: major bleeding (primary safety outcome): 64
  NNT: pulmonary embolism: 64
[2]; [10]
  Less events of clinically relevant non-major bleeding expected than with aspirin: 25 events
  More events of ISTH major bleeding expected than with aspirin: 16 events
  Thrombotic events (primary efficacy outcome) expected to be prevented compared with aspirin: 73 events
[3]
  PT vs rivaroxaban concentration compared with adult reference: within the 99% prediction range observed in the adult reference studies
  aPTT vs rivaroxaban concentration compared with adult reference: within the 99% prediction range observed in the adult reference studies; also recorded: less steep in comparison to adult reference
[4]; [11]
  Ischemic stroke, subjects n (%): 0
  Other thrombosis, subjects n (%): 0
[4]; [12]
  All-cause mortality, No. of subjects with event: 0
  Any thrombotic event (primary efficacy outcome), % of subjects: (1.6%)
  Arterial/intracardiac thrombosis, subjects n (%): 0
  Ischemic stroke, subjects n (%): 0
  Other thrombosis, subjects n (%): 0
  Pulmonary embolism, % of subjects: (1.6%)
  Venous thromboembolism, % of subjects: (1.6%)
  Venous thromboembolism, No. of subjects with event: 1/64
  Venous thrombosis, subjects n (%): 0
[4]; rivaroxaban Part A+B total N=76
  Any thrombotic event (primary efficacy outcome), % of subjects: 3%
[4]; [13]
  Arterial/intracardiac thrombosis, subjects n (%): 0
  Ischemic stroke, subjects n (%): 0
  Other thrombosis, subjects n (%): 0
Factor Xa; UNIVERSE Part A
  Correlation (r) of anti-factor Xa with rivaroxaban plasma concentrations: 0.932
Factor Xa; UNIVERSE study
  R-squared of anti-factor Xa activity vs plasma rivaroxaban concentrations: 0.901
[5]
  Arterial/intracardiac thrombosis, subjects n (%): 0
  Primary efficacy outcome (any thrombotic event), subjects n (%): 1 (8.3%) and 1 (8%)
  Pulmonary embolism, subjects n (%): 0
[6]; UNIVERSE Part A
  Individual values for AUCss,24h, Cmax,ss and Ctrough,ss vs adult reference range: within the adult reference range
[6]; [14]
  AUC24h,ss geometric mean (90% CI): 1698 ng·h/mL
  AUC24h,ss median (range): 1718 ng·h/mL
  Cmax,ss median (range): 121.8 ng/mL
  Ctrough,ss geometric mean (90% CI): 28.6 ng/mL
  Ctrough,ss median (range): 29 ng/mL
[6]; [15]
  AUC24h,ss geometric mean (90% CI): 1440 ng·h/mL
  Cmax,ss geometric mean (90% CI): 109.0 ng/mL
  Cmax,ss median (range): 113.3 ng/mL
  Ctrough,ss geometric mean (90% CI): 22.8 ng/mL
  Ctrough,ss median (range): 23.2 ng/mL
[6]; [16]
  Body weight exponent for Vc/F: 1.20
  First-order absorption rate constant: 1.12 h⁻¹
[6]; [17]
  CL/F (population PK estimate): 3.30 L/h
  Q/F (population PK estimate): 1.09 L/h
  Vc/F (population PK estimate): 17.6 L
